Assay results taken from patent US9730979B2, “Methods for decreasing set in inhibiting protein phosphatase 2A (PP2A) and/or increasing the activity of cyclin-dependent kinase 5 (CDK5) by an APOE peptide” (COGNOSCI, INC., priority 2006, dated 2017).

Tests used:
PP2A = PP2A activity (rate of phosphate release) of PP2A immunoprecipitated from treated RAW cells; assay type: cell-based, mouse; details: 10 nM okadaic acid alone, 1 hour
Procedure: Mouse macrophagic RAW cells were incubated with either 100 ng/mL LPS, 1 μM COG 112 (COG 133 conjugated to antennapedia), LPS and COG 112, 10 nM okadaic acid (an inhibitor of PP2A), or okadaic acid and COG 112. After 1 hour, cells were lysed and PP2A was immunoprecipitated by adding an antibody targeted to the catalytic C-subunit of PP2A. Half of the immunoprecipitate was separated by SDS-PAGE, blotted on to nitrocellulose, and probed with an anti-PP2AC antibody. The remaining portion was assayed for activity by adding 125 μL assay cocktail containing a phospho-threonine substrate peptide to the immunoprecipitated enzyme. After incubating at 37° C. with shaking, a 25 μL aliquot was removed and added to an ammonium molybdate solution (Upstate) that chelates free phosphate and changes color upon chelate formation. Aliquots were removed at various time intervals and the amount of free phosphate released from the peptide was determined by comparison to a phosphate standard curve. The rate of phosphate release was determined by linear fit to the time course data and was normalized to the relative PP2A concentration. PP2A activity, measured by the rate of phosphate release, is increased in the presence of COG 112 (FIG. 8), as would be expected if SET inhibition of PP2A was eliminated by binding of COG112 to SET. […]

tau = test: Okadaic acid induced phospho-tau (AT-8) in mouse cortex; assay type: in vivo, C57B1/6 mice
Procedure: C57B1/6 mice were injected intravenously with increasing concentrations of okadaic acid (OA) (calculated by administration of a sufficient quantity of OA to produce the indicated μM concentration in a blood volume of 2 mL). One hour after OA was administered, mice were euthanized by decapitation and the brain removed. The cortex was isolated, flash frozen with liquid nitrogen, ground to a fine powder and an extract made by homogenization of the powder in an extraction buffer containing protease and phosphatase inhibitors. Protein extracts were separated by SDS-PAGE, transferred to nitrocellulose membranes, and probed for phospho-tau using the AT-8 antibody that recognizes phosphorylation of Ser202 and Thr205 of tau. Phospho-tau signals were normalized to signals from GAPDH protein. […] To determine the effect of COG peptides on the phosphorylation status of the tau protein, 5 mg/kg of COG 1410 was administered to the mice by subcutaneous injection 15 minutes prior to OA administration. FIG. 11B depicts the results of this series of experiments.

SET from human brain = biological target: T1, SET from human brain (Homo sapiens, UniProt Q01105); test: Biotinylated COG 133 pull-down of SET from human brain extract, competition with excess peptide; assay type: binding
SET, sequence (Q9EQU5 37-289 limits assumed): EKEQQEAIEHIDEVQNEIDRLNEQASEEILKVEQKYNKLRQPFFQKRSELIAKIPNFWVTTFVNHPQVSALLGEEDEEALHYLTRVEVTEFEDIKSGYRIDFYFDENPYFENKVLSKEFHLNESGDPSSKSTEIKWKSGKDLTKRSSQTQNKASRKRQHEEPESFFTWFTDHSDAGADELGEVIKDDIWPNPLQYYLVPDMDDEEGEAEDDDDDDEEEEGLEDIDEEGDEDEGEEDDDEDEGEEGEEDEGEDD
T1 construct: pulls down SET from human brain extracts; from tissue; host or cells: human brain homogenate
T1 sequence (Q01105 whole entry): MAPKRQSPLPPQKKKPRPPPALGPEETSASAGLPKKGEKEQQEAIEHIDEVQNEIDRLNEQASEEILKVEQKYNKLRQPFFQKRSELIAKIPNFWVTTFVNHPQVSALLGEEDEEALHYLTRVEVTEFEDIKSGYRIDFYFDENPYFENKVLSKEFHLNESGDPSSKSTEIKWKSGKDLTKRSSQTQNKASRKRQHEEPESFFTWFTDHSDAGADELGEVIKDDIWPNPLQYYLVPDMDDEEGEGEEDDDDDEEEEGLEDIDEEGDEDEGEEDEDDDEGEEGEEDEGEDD
Procedure: Human brain was homogenized in PBS buffer with a protease cocktail tablet and centrifuged to remove cellular debris. 100 ng of biotinylated COG 133 (COG 133 peptide with biotin attached to the N-terminus) was added to 1 mg of clarified supernatant. After 4 hours of incubation at room temperature, 50 μL of a 50% slurry of streptavidin agarose beads were added. After an additional hour of incubation, the beads were pelleted by centrifugation. The beads were washed 3 times with PBS buffer containing 0.1% tween 20 detergent. 50 μL of a 2×SDS PAGE loading buffer (containing DTT) were added to the washed beads and the samples were boiled for 2 minutes. Polyacrylamide gels were loaded with either 40 μL of extract per lane or 10 μg of total brain extract protein (control lane) and run in SDS buffer. […] Membranes were then probed with an anti-SET antibody. Blots were developed with Enhanced Chemiluminescence substrates (GE healthcare) and visualized by exposure to film.
In a related experiment, derivatives of the COG 133 peptide were tested for SET binding. Human brain extracts were prepared as described above. A 10-fold excess of COG 1410 or COG 112 peptide was added to the brain extract and incubated for 10 minutes. Next, 100 ng of biotinylated COG 133 was added to the extract and incubated for four hours at room temperature. […]

SET bound to P35 [1] = biological target: T2, SET bound to P35 (Mus musculus, UniProt Q9EQU5); test: Co-precipitation of SET with immunoprecipitated p35 from mouse brain lysate; assay type: binding; details: 50 μM peptide, SET normalized to P35
T2 construct: from tissue; host or cells: mouse brain lysate
T2 sequence (Q9EQU5 2-289 limits assumed): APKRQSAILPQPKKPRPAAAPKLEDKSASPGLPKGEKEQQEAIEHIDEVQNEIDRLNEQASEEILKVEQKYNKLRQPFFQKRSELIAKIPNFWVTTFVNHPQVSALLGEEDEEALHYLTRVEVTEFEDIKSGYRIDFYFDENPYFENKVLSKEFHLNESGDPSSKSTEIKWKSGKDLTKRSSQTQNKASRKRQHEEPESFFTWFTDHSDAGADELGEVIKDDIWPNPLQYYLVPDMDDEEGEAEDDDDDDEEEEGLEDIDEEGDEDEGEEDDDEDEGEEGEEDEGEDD
Procedure: (§1) FIG. 12. Mouse brain lysate was incubated with 50 μM of each of the peptides indicated. P35 was subsequently immunoprecipitated from 1 mg of the peptide-treated lysate. Western blots were performed to measure co-precipitation of SET protein (left panel). […] Signals from SET were normalized to signals for P35 protein. Results with COG 133 are not shown and were inconclusive possibly due to unequal protein loading.
(§2) Cdk5 requires the activator protein p35 for kinase activity. Although cdk5 is ubiquitously expressed, p35 expression is restricted to neurons of the central nervous system, thus limiting cdk5 associated kinase activity to these neurons. Cleavage of p35 to p25 disregulates cdk5 kinase activity causing the kinase to become constitutively active. Constitutive kinase activity of cdk5/p25 has been implicated in the aberrant hyperphosphorylation of tau protein and subsequent neurodegeneration found in Alzheimer's disease and other tauopathies. […] Therefore, it may be possible to reduce cdk5 kinase activity by interfering with the interaction between SET and the cdk5/p35 complex. To test this possibility, the effects of COG peptides on the binding of SET to p35 were examined. Mouse brain lysates (FIG. 12) or human brain lysates (FIG. 13) were incubated with 50 μM of COG 056 (reverse sequence of COG133), COG 112, COG133, or COG 1410. […]

SET bound to P35 [2] = biological target: T3, SET bound to P35 (Homo sapiens, UniProt Q01105); test: Co-precipitation of SET with immunoprecipitated p35 from human brain lysate; assay type: binding; details: 50 μM peptide, SET normalized to P35
T3 construct: from tissue; host or cells: human brain lysate
T3 sequence (Q01105 2-290 limits assumed): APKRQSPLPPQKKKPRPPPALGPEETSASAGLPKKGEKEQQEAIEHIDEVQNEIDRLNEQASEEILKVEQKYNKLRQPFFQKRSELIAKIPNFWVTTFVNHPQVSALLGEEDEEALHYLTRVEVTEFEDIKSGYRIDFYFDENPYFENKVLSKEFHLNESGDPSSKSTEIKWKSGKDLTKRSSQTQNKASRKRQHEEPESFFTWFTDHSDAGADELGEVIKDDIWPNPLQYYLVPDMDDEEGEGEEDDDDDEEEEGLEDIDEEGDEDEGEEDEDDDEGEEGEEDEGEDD
Procedure: as §1, with “13. Human” for “12. Mouse”, “protein.” for “protein. Results with COG 133 are not shown and were inconclusive possibly due to unequal protein loading.”
as §2, with “1410. Activator protein p35 was immunoprecipitated with an anti-p35 antibody and protein A agarose beads from 1 mg of the peptide-treated brain lysates.” for “1410.”

[3] = relative to COG 133; cited from earlier work
BV2 cells [4] = test: LPS-induced nitric oxide production in BV2 cells with and without siRNA to SET; assay type: cell-based, mouse; details: BV2 cells transfected with siRNA to SET
Procedure: See PCT application PCT/US05/31431 which claims priority to U.S. Provisional Applications 60/606,506, filed Sep. 2, 2004, 60/608,148, filed Sep. 9, 2004, and 60/606,507, filed Sep. 2, 2004 which are herein incorporated by reference in their entireties. BV2 cells were transfected with siRNA to SET. BV2 cells transfected with the siRNA and BV2 cells not transfected with the siRNA were treated with COG 133, LPS, or LPS and COG 133 as described in the above-referenced patent applications. Untreated BV2 cells were used as a control. FIG. 3 is a graph of the results. Bars three and seven correspond to LPS without siRNA to SET and with siRNA to SET, respectively. […] Similarly, there is a reduction in nitric oxide in the group treated with LPS and COG 133 and transfected with siRNA to SET compared to the group treated with LPS and COG 133 and not transfected with siRNA (lanes 8 and 4, respectively).

human THP1 cells = test: LPS-induced TNFα production in human THP1 cells with and without siRNA to SET; assay type: cell-based; details: SET removed by siRNA-based silencing
Description: Consistent with the mechanism of SET as an inhibitor of Protein Phosphatase 2A (PP2A), a reduction of the LPS-induced TNF response as well as elimination of the effect of COG 133 was observed when SET was removed from the cells.

p38 MAP kinase = test: LPS-induced phosphorylation of p38 MAP kinase in BV2 microglia, western blot; assay type: cell-based, mouse; details: LPS plus peptide, 30 minutes, normalized to GAPDH
Procedure: (§3) Mouse BV2 microglia were incubated with either a negative control, LPS, or LPS and COG 133 (SEQ ID NO: 1) peptide for 30 minutes. Cells were lysed and a clarified extract prepared by centrifugation. Polyacrylamide gels were loaded with 30 μg of extract per lane and run in SDS buffer. […] Membranes were then probed with phospho-specific p38 MAP kinase, MKK 3/6, JNK, ERK, and IκB antibodies. Membranes were developed with Enhanced Chemiluminescence substrates (GE healthcare) and visualized by exposure to film. Membranes were then stripped and reprobed for total p38, JNK, Erk or IκB using non phospho-specific antibodies as previously described. In some experiments, the membranes were probed for GAPDH protein. Densitometry analysis of the western blots was conducted and the signals from phosphorylated p38 MAP kinase were normalized to those from GAPDH. […] PP2A has been reported to bind and dephosphorylate p38 MAP kinase (Sundaresan & Farndale 2002 FEBS Letters 528, 139). Given that COG peptides can increase PP2A activity (Example 5), it is likely that the dephosphorylation of p38 MAP kinase occurs through the activation of PP2A by COG binding to SET.

[5] = test system: c-Jun N-terminal kinase (JNK); test: LPS-induced phosphorylation of JNK in BV2 microglia, western blot; assay type: cell-based, mouse; details: LPS plus peptide, 30 minutes
Procedure: as §3

[6] = test system: extracellular regulated kinase (ERK) 1/2; test: LPS-induced phosphorylation of ERK 1/2 in BV2 microglia, western blot; assay type: cell-based, mouse; details: LPS plus peptide, 30 minutes
Procedure: as §3

IκB = test: LPS-induced phosphorylation of IκB in BV2 microglia, western blot; assay type: cell-based, mouse; details: LPS plus peptide, 30 minutes
Procedure: as §3

NFκB = test: Nuclear NFκB in LPS-stimulated colonic epithelial cells, gel shift with radiolabeled oligonucleotide; assay type: cell-based; details: nuclear extracts
Procedure: In the dephosphorylated state, IκB binds to the transcription factor NFκB and prevents it from translocating to the nucleus to activate transcription of pro-inflammatory cytokines. […] A radiolabeled oligonucleotide containing a NFκB binding site was added to the proteins from the nuclear extracts and the proteins were subsequently separated by non-denaturing polyacrylamide gel electrophoresis. The amount of NFκB present in the nuclear extracts was detected by autoradiography (FIG. 10D). Nuclear NFκB was reduced in the presence of COG 133 providing further evidence that this signal transduction cascade is suppressed in cells treated with ApoE peptides.

BV2 cells [7] = details: without siRNA; previously shown; cited from earlier work

C=C1[C@@H](O)[C@@H]2O[C@]3(CC[C@H](/C=C/[C@@H](C)[C@@H]4CC(C)=C[C@@]5(O[C@H](C[C@@](C)(O)C(=O)O)CC[C@H]5O)O4)O3)CC[C@H]2O[C@@H]1[C@@H](O)C[C@H](C)[C@H]1O[C@@]2(CCCCO2)CC[C@H]1C [okadaic acid, reference compound]
baseline PP2A activity (PP2A): decrease in baseline PP2A activity
phospho-tau in the cortex (tau; okadaic acid intravenously, increasing concentrations, one hour, normalized to GAPDH): concentration-dependent increase

Ac-AS-Aib-LRKL-Aib-KRLL-NH2 [COG 1410]
SET protein pulled down with biotinylated COG 133 (SET from human brain; 10-fold excess of competitor peptide, human brain extract): reduces the amount of SET protein pulled down
phosphorylated tau protein induced by OA (tau; mouse, in vivo): reduced the amount of phosphorylated tau protein
amount of SET bound to P35 (SET bound to P35 [1]): reduce the amount of SET bound to P35
amount of SET bound to P35 (SET bound to P35 [2]): reduce the amount of SET bound to P35
competition with biotinylated COG 133 for binding to SET (SET; BV2 cells, anti-SET western blot): competes with COG 133 in binding to SET
gain in therapeutic window as compared to COG 133 [3]: 4 fold

LRVRLASHLRKLRKRLL [COG 133]
nitric oxide, LPS+COG 133+siRNA versus LPS+siRNA (BV2 cells [4]): not a significant difference
effect in reducing LPS-induced TNFα production (human THP1 cells): eliminated
phosphorylation of p38 MAP kinase (p38 MAP kinase): decrease in phosphorylation
LPS-induced phosphorylation of JNK [5]: reduces the LPS-induced phosphorylation
LPS-induced phosphorylation of ERK [6]: reduces the LPS-induced phosphorylation
LPS-induced phosphorylation of IκB (IκB): reduces the LPS-induced phosphorylation
nuclear NFκB (NFκB): reduced
amount of SET bound to P35 (SET bound to P35 [2]): reduce the amount of SET bound to P35
LPS-induced nitric oxide production (BV2 cells [7]): reduce LPS-induced nitric oxide production

biotinylated COG 133 [reference compound]
binding to SET (SET from human brain; 100 ng peptide in 1 mg human brain supernatant, streptavidin pull-down): binds to and pulls down SET
binding to SET (SET): uniquely bind
